US6207656A, “Vitamin D analogues and their neuronal effects” (Cephalon, Inc., priority 1998, dated 2001)

Tests used:
[1] = Serum calcium in primates; assay type: in vivo, monkey; conditions: 10 and 30 μg/kg/day oral, 8 days
[2] = tested on: rats having bilateral lesions of the fimbria-fornix; experiment: Locomotor activity (hyperactivity) after bilateral fimbria-fornix lesion; assay type: in vivo, rat
Description: To determine whether low calcemic doses of vitamin D3 analogs would improve lesion-induced behavioral deficits, Compound (A) (0.1 and 1.0 μg/kg/day) was administered orally once a day (26 days) to rats having bilateral lesions of the fimbria-fornix. Bilateral lesions of the fimbria-fornix cause rats to become hyperactive. To test for hyperactivity, rats were placed in a box marked with squares, where it was observed how many squares the rats entered in a five minute period.

[3] = Serum calcium in fimbria fornix lesioned rats; assay type: in vivo, Sprague Dawley rats; conditions: oral gavage daily 14 days; data not shown
Description: For the fimbria fornix lesion studies, serum calcium was determined by the following method. Sprague Dawley rats (200-300 g) were dosed as described below. Blood was collected from the animals after sacrifice and allowed to clot at room temperature for 3-10 minutes; cells were pelleted in a clinical centrifuge.
(§1) The hippocampal ChAT activity is expressed as a percentage of the hippocampal ChAT activity of the […] control side (i.e., lesion control) in FIGS. 4 to 8.

[4] = Serum calcium / hypercalcemia in rats (2 weeks dosing, 28-day toxicology); assay type: in vivo, Sprague Dawley rats
hippocampal ChAT = experiment: Fimbria fornix lesion model, hippocampal ChAT activity; assay type: in vivo, rat; conditions: oral gavage daily 14 days, FIGS. 4 to 8; * p<0.05 vs vehicle-treated lesioned controls
Excerpt: The fimbria fornix lesion model is an established protocol for assessing cholinergic neuronal survival in the basal forebrain. […] Contained within the region of the brain 10 are cholinergic neurons 16. A healthy cholinergic neuron has a cell body 18, and one or more axons 20. Each of the axons 20 have a free end, referred to as a terminal 22, that extends into the hippocampus 14. In the fimbria fornix lesion model, damaged cholinergic neurons 24 are produced by transecting a portion of the axons 20 at a location 26 between the hippocampus 14 and the cell body 18. As a result of this transection, damaged cell bodies 28 are produced that no longer have cholinergic axons 30 and terminals 32. These damaged cell bodies 28, also lose cholinergic cell body markers 34 and stop producing ChAT. The fimbria fornix lesion model is used to study methods of restoring ChAT production, such as through stimulating increased production of ChAT in the healthy cholinergic neurons, and/or through restoring normal functioning of the damaged cholinergic neurons 24.
For the studies described herein, animals were anesthetized with pentobarbital and placed in a stereotaxic apparatus. The skull was opened on the left side, a knife was positioned 1.2 mm posterior to bregma and 0.6 mm lateral to the midline. The knife was lowered to 4.5 mm below the dura into the brain and moved laterally 2 mm partially transecting the fimbria fornix. After 14 days of administration of the test compounds by oral gavage, the hippocampus was removed and homogenized.
as §1

BDNF mRNA = experiment: Induction of BDNF mRNA expression in rats; assay type: in vivo, Sprague Dawley rats; conditions: 0.3, 1.0 and 3.0 μg/kg oral, 8 days; hippocampus (FIG. 1)
Description: (§2) Young adult male Sprague Dawley rats (250-350 g) were administered Compound (A), Compound (E), or a vehicle (80% propylene glycol (human formulation grade; Spectrum Quality Products, Inc., Gardena, Calif., catalog #PR130-55003) and 20% phosphate buffer, pH 9.2) at doses ranging from 0.1 to 5.5 μg/kg daily by oral gavage for eight days. Five hours after the last dose, the animals were sacrificed by decapitation. Each brain was quickly removed and chilled in ice-cold saline. The brain was cut into 2 mm thick coronal sections. Portions of the hippocampus, encompassing the CA1 region, and the medial septum were removed by punching 2 mm^3 sections using a calibrated tissue punch. Punched sections were immediately frozen on dry ice and then stored at -70° C. RNA was prepared from dissected tissue pieces.
(§3) Punches of tissue were homogenized in […] RNAzolB™ (Bioteex Laboratories, Houston, Tex.) using a homogenizer (Tekmar, Germany) until fully homogenized and then 250 μl RNAzilB™ was added. Typically, punches from the corresponding regions of brains of 2 to 3 animals were combined together. RNA was prepared as recommended by the manufacturer (Biotecx Laboratories). […] Concentration of RNA was measured spectrophotometrically and the quality of RNA was visualized on a nondenaturing agarose gel. […]

[5] = tested on: ChAT producing cholinergic cells; experiment: Fimbria fornix lesion model, cholinergic cell number (ChAT positive septal neurons); assay type: in vivo, rat
Description: Fimbria fornix lesioned animals treated orally with Compound (A) (n=10) or vehicle (n=10) were assessed using acetyl cholinesterase staining of both the lesion area and hippocampal formation. Animals received either Compound (A) (1 μg/day) or vehicle via oral gavage (14 days). […] Neurol. 284:187 (1989).
Coronal sections were cut at […] with a cryostat and collected throughout the medial septum. Every fourth section was processed for the visualization of ChAT positive neurons. Approximately 12 sections were assessed per brain. Cholinergic cells were counted and expressed as a ratio of lesioned to unlesioned control side. […] The results, presented in FIG. 9, indicate that lesioned animals treated with Compound (A) have an approximate 30% increase in the number of cholinergic cells as compared to vehicle treated lesioned animals.

GDNF mRNA = experiment: Induction of GDNF mRNA expression in rats; assay type: in vivo, Sprague Dawley rats; conditions: 0.3, 1.0 and 3.0 μg/kg oral, 8 days; septum and hippocampus (FIG. 1)
Description: as §2, §3

## C=C1/C(=C\C=C2/CCC[C@]3(C)[C@@H]([C@@H](C)[C@@H](C#CCC(O)(CC)CC)OCC)CC[C@@H]23)C[C@@H](O)C[C@@H]1O [Compound (A), 1(S),3(R)-dihydroxy-20(R)-(1-ethoxy-5-ethyl-5-hydroxy-2-heptyn-1-yl)-9,10-seco-pregna-5(Z),7(E),10(19)-triene]
[1]
  serum calcium levels: did not increase serum calcium levels and were not hypercalcemic doses
[2]; 1.0 μg/kg/day oral, 26 days
  locomotor activity (squares entered per 5 minutes): reduced locomotor activity
[2]; FIG. 10 legend, oral
  locomotor activity caused by fimbria fornix lesions: reduces locomotor activity
[3]
  serum calcium at doses giving the ChAT results: low calcemic dose levels
[4]; 1.0 μg/kg, after 2 weeks of dosing
  serum calcium: did not increase serum calcium
[4]; 1.0 μg/kg, considered in toto
  calcemic classification of dose: hypercalcemic dose when considered in toto
[4]; 1 μg/kg, female vs male Sprague Dawley rats, data not shown
  hypercalcemia, 28-day toxicology studies: hypercalcemic to female, but not male, Sprague Dawley rats
[4]; 3.0 μg/kg
  hypercalcemia: hypercalcemic to the animals
Hippocampal ChAT
  hippocampal ChAT activity vs lesioned controls: significant increase in CHAT activity
BDNF mRNA
  production of BDNF mRNA: facilitated the production of NRT-like mRNA, GDNF mRNA, NT-3 mRNA, and BDNF mRNA
[5]; 1 μg/day oral gavage, 14 days (FIG. 9)
  increase in number of cholinergic cells vs vehicle treated lesioned animals: ~30%
[5]; FIG. 9, partially fimbria fornix lesioned animals vs vehicle
  septal neurons expressing ChAT: increase in septal neurons expressing ChAT
GDNF mRNA
  production of GDNF mRNA: facilitated the production of NRT-like mRNA, GDNF mRNA
